Legend:
[1] = test system: broadleaf weeds and grasses typically found in preplant corn fields; assay: Field test of preplant burndown effectiveness (Example 1); type: in vivo; settings: average of ratings 6 and 8 weeks after treatment
Method: The composition of the present invention was tested for percent burndown effectiveness, compared to pretreatment, in fields containing broadleaf weeds and grasses typically found in preplant corn fields, including Texas panicum, fall panicum, signalgrass, goosegrass, barnyardgrass, yellow & green foxtail, pigweed, wild mustard, ryegrass, vetch, volunteer wheat, Florida pusley, smartweed, and cutleaf evening primrose.
The composition of the present invention consisted of about 57% ametryn, 25% atrazine, and 18% paraquat, by weight, and was applied at a rate of about 2 lbs. per acre. On separate fields, for comparison, ametryn alone, paraquat alone, atrazine alone, and ametryn plus gramoxone were applied. The composition of the present invention was formulated by suspending 2 lbs. of the composition of the present invention per 20 gallons of water. Herbicides were rated for burndown effectiveness 6 and 8 weeks after treatment. The two resulting values were averaged.

humans and other mammals = settings: result in words; cited from earlier work
vetch = settings: herbicide alone; cited from earlier work

SMILES | Percent Burndown ([1]; ametryn 1.14 lb active ingredient/acre, compared to pretreatment) [%] | toxicity to humans (humans and other mammals) | effective against vetch (vetch) [%] | Percent Burndown ([1]; paraquat 0.35 lb active ingredient/acre) [%] | Percent Burndown ([1]; paraquat 0.70 lb active ingredient/acre) [%]
CCNc1nc(NC(C)C)nc(SC)n1 [ametryn, 2-(ethylamino)-4-isopropylamino-6-methylthio-s-triazine] | 30 | minimal human toxicity | 100 |  | 
C[n+]1ccc(-c2cc[n+](C)cc2)cc1 [paraquat, 1,1-dimethyl-4,4-bipyridinium] |  | high toxicity to humans and other mammals |  | 30 | 50

Source: patent publication US6413909B1, “Herbicide composition for control of rye grass and vetch in preplant burndown” (priority 2001, dated 2002)
